{
  "source": "patent US11414474B2",
  "about": "“Long-acting adrenomedullin derivatives” (University of Miyazaki, priority 2014, dated 2022)",
  "key": {"in vivo": {"experiment": "in vivo", "conditions": "male, Wistar, rat, iv"}, "AM receptor": {"target": "T1, AM receptor (Homo sapiens, UniProt Q16602)", "T1 construct": "expressed in transfected cells; host or cells: HEK293 cell line", "T1 sequence (Q16602 23-461)": "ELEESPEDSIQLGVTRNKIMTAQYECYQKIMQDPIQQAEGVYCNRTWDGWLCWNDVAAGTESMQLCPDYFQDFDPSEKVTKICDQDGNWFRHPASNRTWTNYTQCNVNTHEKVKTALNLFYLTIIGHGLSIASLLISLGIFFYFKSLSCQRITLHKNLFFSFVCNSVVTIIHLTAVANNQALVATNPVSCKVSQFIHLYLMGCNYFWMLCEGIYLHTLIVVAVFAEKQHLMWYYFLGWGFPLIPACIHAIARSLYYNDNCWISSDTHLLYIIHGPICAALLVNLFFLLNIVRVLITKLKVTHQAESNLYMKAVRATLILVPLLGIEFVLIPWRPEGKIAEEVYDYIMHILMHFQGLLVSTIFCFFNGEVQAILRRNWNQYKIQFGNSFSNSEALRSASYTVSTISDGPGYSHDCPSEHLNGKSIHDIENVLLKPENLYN", "T1 sequence (O60895 43-175 partner)": "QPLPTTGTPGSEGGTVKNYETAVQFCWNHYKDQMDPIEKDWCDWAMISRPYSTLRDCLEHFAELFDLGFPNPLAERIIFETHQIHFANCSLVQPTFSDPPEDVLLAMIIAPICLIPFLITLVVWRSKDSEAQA", "experiment": "Intracellular cAMP concentration-increasing effect in AM receptor-expressing HEK293 cells (cAMP ELISA)", "assay_type": "cell-based", "procedure": "Then, the intracellular cAMP concentration in the HEK293 cells of each test sample was measured using an ELISA kit for cAMP measurement (GE Healthcare Japan Corp., #RPN2251)."}, "[1]": {"test_system": "blood pressure of the rat", "experiment": "Blood pressure-lowering effect after single intravenous dose in anesthetized rats", "assay_type": "in vivo", "conditions": "intravenous single dose 10 nmol/kg", "procedure": "From the catheter tube of the right jugular vein, a physiological saline-heparin solution (physiological saline: 100 ml; heparin: 1000 units) was infused at 2.4 ml/hr. […] The catheter inserted in the carotid artery was connected to a pressure transducer. […] In the figure, the longitudinal axis indicates a difference obtained by subtracting the average blood pressure before the administration of each drug from the average blood pressure at the time of the administration of each drug.\nIn the case of these derivatives, the blood pressure-lowering effect was sustained even 90 minutes after the administration. […] The blood pressure-lowering effect of the adrenomedullin derivative shown in this test was well consistent with the prolonged half-life in blood shown in the above test."}, "[2]": {"test_system": "DSS-induced enteritis (inflammatory bowel disease model)", "experiment": "Therapeutic effect on DSS-induced inflammatory bowel disease model (total score, length of intestinal tract)", "assay_type": "in vivo, mouse", "parameters": "total score, median value / total score, mean±standard deviation: scale not given here", "conditions": "for total score as compared with the control group: Steel's multiple comparison test, p<0.05 or P<0.01", "procedure": "The body weight of the subject mouse was measured 3, 5, 7, 10 and 14 days after the start of the administration.\nThe body weight of the subject mouse and the form of stool thereof were evaluated 3, 5, 7, 10 and 14 days after the start of the administration on the basis of scoring criteria given below. The obtained scores were summed to calculate the total score of each sample.\nThe intestinal tract excised by anatomy was opened along its longitudinal axis, and fat tissues were removed, followed by washing with physiological saline. Next, the length of the intestinal tract was measured.\nThe total score evaluated by the procedures described above is indicated by a median value [mean±standard deviation]. The total scores of the control group obtained 3, 5, 7, 10 and 14 days after the start of the administration were 0.0 [0.6±0.3], 4.0 [3.7±0.4], 6.0 [5.4±0.5], 3.5 [4.1±0.4] and 0.0 [0.0±0.0], respectively."}, "[3]": {"conditions": "second-phase half-life in blood"}, "[4]": {"conditions": "0.02 nmol/kg/hr, 3 days after the start of the administration"}, "[5]": {"conditions": "0.1 nmol/kg/hr, 3 days after the start of the administration"}, "[6]": {"conditions": "0.5 nmol/kg/hr, 3 days after the start of the administration"}},
  "data": [
    {"compound": "CCCCCCCCCCCCCCCC(=O)N[C@@H](Cc1ccc(O)cc1)C(=O)N[C@@H](CCCNC(=N)N)C(=O)N[C@@H](CCC(N)=O)C(=O)N[C@@H](CO)C(=O)N[C@@H](CCSC)C(=O)N[C@@H](CC(N)=O)C(=O)N[C@@H](CC(N)=O)C(=O)N[C@@H](Cc1ccccc1)C(=O)N[C@@H](CCC(N)=O)C(=O)NCC(=O)N[C@@H](CC(C)C)C(=O)N[C@@H](CCCNC(=N)N)C(=O)N[C@@H](CO)C(=O)N[C@@H](Cc1ccccc1)C(=O)NCC(=O)N[C@H]1CSSC[C@@H](C(=O)N[C@H](C(=O)N[C@H](C(=O)N[C@@H](CCC(N)=O)C(=O)N[C@@H](CCCCN)C(=O)N[C@@H](CC(C)C)C(=O)N[C@@H](C)C(=O)N[C@@H](Cc2c[nH]cn2)C(=O)N[C@@H](CCC(N)=O)C(=O)N[C@H](C(=O)N[C@@H](Cc2ccc(O)cc2)C(=O)N[C@@H](CCC(N)=O)C(=O)N[C@@H](Cc2ccccc2)C(=O)N[C@H](C(=O)N[C@@H](CC(=O)O)C(=O)N[C@@H](CCCCN)C(=O)N[C@@H](CC(=O)O)C(=O)N[C@@H](CCCCN)C(=O)N[C@@H](CC(=O)O)C(=O)N[C@@H](CC(N)=O)C(=O)N[C@H](C(=O)N[C@@H](C)C(=O)N2CCC[C@H]2C(=O)N[C@@H](CCCNC(=N)N)C(=O)N[C@@H](CO)C(=O)N[C@@H](CCCCN)C(=O)N[C@H](C(=O)N[C@@H](CO)C(=O)N2CCC[C@H]2C(=O)N[C@@H](CCC(N)=O)C(=O)NCC(=O)N[C@@H](Cc2ccc(O)cc2)C(N)=O)[C@@H](C)CC)C(C)C)[C@@H](C)O)[C@@H](C)CC)C(C)C)[C@@H](C)O)NC(=O)[C@H]([C@@H](C)O)NC(=O)CNC(=O)[C@H](Cc2ccccc2)NC(=O)[C@H](CCCNC(=N)N)NC1=O", "note": "[Pal-h.AM(1-52)]", "values": [
      {"measurement": "half-life", "setting": "in vivo; first-phase half-life in blood", "value": 3.51, "unit": "min"},
      {"measurement": "half-life", "setting": "in vivo; [3]", "value": 123, "unit": "min"},
      {"measurement": "EC50", "setting": "AM receptor", "value": 3.24, "unit": "nM"},
      {"measurement": "maximum response value of increase in cAMP concentration as compared with h.AM(1-52)", "setting": "AM receptor; AM receptor-expressing HEK293 cells", "value": "substantially equivalent"},
      {"measurement": "effect on blood pressure", "setting": "[1]", "value": "lowered the blood pressure"},
      {"measurement": "maximum pressure drop value compared with h.AM(1-52)", "setting": "[1]", "value": "lower than the value of h.AM(1-52)"}
    ]},
    {"compound": "PEG5000-h.AM(1-52): human adrenomedullin (1-52) N-terminally linked to PEG having an average molecular weight of 5000 via 1-oxo-1,6-hexanediyl", "values": [
      {"measurement": "total score, mean±standard deviation", "setting": "[2]; [4]", "value": "0.8±0.2"},
      {"measurement": "total score, median value", "setting": "[2]; [4]", "value": 1.0},
      {"measurement": "total score, mean±standard deviation", "setting": "[2]; 0.02 nmol/kg/hr, 5 days", "value": "2.8±0.5"},
      {"measurement": "total score, median value", "setting": "[2]; 0.02 nmol/kg/hr, 5 days", "value": 2.5},
      {"measurement": "total score, mean±standard deviation", "setting": "[2]; 0.02 nmol/kg/hr, 7 days", "value": "5.7±0.4"},
      {"measurement": "total score, median value", "setting": "[2]; 0.02 nmol/kg/hr, 7 days", "value": 5.5},
      {"measurement": "total score, mean±standard deviation", "setting": "[2]; 0.02 nmol/kg/hr, 10 days", "value": "3.1±0.8"},
      {"measurement": "total score, median value", "setting": "[2]; 0.02 nmol/kg/hr, 10 days", "value": 2.5},
      {"measurement": "length of the intestinal tract (mean±standard deviation)", "setting": "[2]; 0.02 nmol/kg/hr, 14 days", "value": "69.4±1.5", "unit": "mm"},
      {"measurement": "total score, mean±standard deviation", "setting": "[2]; 0.02 nmol/kg/hr, 14 days", "value": "0.0±0.0"},
      {"measurement": "total score, median value", "setting": "[2]; 0.02 nmol/kg/hr, 14 days", "value": 0.0},
      {"measurement": "total score, mean±standard deviation", "setting": "[2]; [5]", "value": "0.7±0.3"},
      {"measurement": "total score, median value", "setting": "[2]; [5]", "value": 0.0},
      {"measurement": "total score, mean±standard deviation", "setting": "[2]; 0.1 nmol/kg/hr, 5 days", "value": "1.9±0.5"},
      {"measurement": "total score, median value", "setting": "[2]; 0.1 nmol/kg/hr, 5 days", "value": 1.5},
      {"measurement": "total score, mean±standard deviation", "setting": "[2]; 0.1 nmol/kg/hr, 7 days", "value": "4.1±0.4"},
      {"measurement": "total score, median value", "setting": "[2]; 0.1 nmol/kg/hr, 7 days", "value": 5.0},
      {"measurement": "total score, mean±standard deviation", "setting": "[2]; 0.1 nmol/kg/hr, 10 days", "value": "2.0±0.5"},
      {"measurement": "total score, median value", "setting": "[2]; 0.1 nmol/kg/hr, 10 days", "value": 2.0},
      {"measurement": "total score as compared with the control group", "setting": "[2]; 0.1 nmol/kg/hr, 10 days", "value": "significant decrease"},
      {"measurement": "length of the intestinal tract (mean±standard deviation)", "setting": "[2]; 0.1 nmol/kg/hr, 14 days", "value": "71.4±0.9", "unit": "mm"},
      {"measurement": "total score, mean±standard deviation", "setting": "[2]; 0.1 nmol/kg/hr, 14 days", "value": "0.0±0.0"},
      {"measurement": "total score, median value", "setting": "[2]; 0.1 nmol/kg/hr, 14 days", "value": 0.0},
      {"measurement": "total score as compared with the control group", "setting": "[2]; 0.5 nmol/kg/hr, 5, 7 and 10 days", "value": "significant decrease"},
      {"measurement": "total score, mean±standard deviation", "setting": "[2]; [6]", "value": "1.3±0.3"},
      {"measurement": "total score, median value", "setting": "[2]; [6]", "value": 1.0},
      {"measurement": "total score, mean±standard deviation", "setting": "[2]; 0.5 nmol/kg/hr, 5 days", "value": "1.1±0.3"},
      {"measurement": "total score, median value", "setting": "[2]; 0.5 nmol/kg/hr, 5 days", "value": 1.5},
      {"measurement": "total score, mean±standard deviation", "setting": "[2]; 0.5 nmol/kg/hr, 7 days", "value": "3.0±0.3"},
      {"measurement": "total score, median value", "setting": "[2]; 0.5 nmol/kg/hr, 7 days", "value": 3.0},
      {"measurement": "total score, mean±standard deviation", "setting": "[2]; 0.5 nmol/kg/hr, 10 days", "value": "2.1±0.4"},
      {"measurement": "total score, median value", "setting": "[2]; 0.5 nmol/kg/hr, 10 days", "value": 2.0},
      {"measurement": "length of the intestinal tract (mean±standard deviation)", "setting": "[2]; 0.5 nmol/kg/hr, 14 days", "value": "72.4±0.9", "unit": "mm"},
      {"measurement": "total score, mean±standard deviation", "setting": "[2]; 0.5 nmol/kg/hr, 14 days", "value": "0.0±0.0"},
      {"measurement": "total score, median value", "setting": "[2]; 0.5 nmol/kg/hr, 14 days", "value": 0.0},
      {"measurement": "length of the intestinal tract as compared with the control group", "setting": "[2]; all of 0.02, 0.1 and 0.5 nmol/kg/hr, Dunnett's multiple comparison test, P<0.05 or P<0.01", "value": "significantly different"},
      {"measurement": "effect on blood pressure", "setting": "[1]", "value": "lowered the blood pressure"},
      {"measurement": "maximum pressure drop value compared with h.AM(1-52)", "setting": "[1]", "value": "lower than the value of h.AM(1-52)"}
    ]},
    {"compound": "CC[C@H](C)[C@H](NC(=O)[C@H](CCC(N)=O)NC(=O)[C@H](Cc1c[nH]cn1)NC(=O)[C@H](C)NC(=O)[C@H](CC(C)C)NC(=O)[C@H](CCCCN)NC(=O)[C@H](CCC(N)=O)NC(=O)[C@@H](NC(=O)[C@@H](NC(=O)[C@@H]1CSSC[C@H](NC(=O)CNC(=O)[C@H](Cc2ccccc2)NC(=O)[C@H](CO)NC(=O)[C@H](CCCNC(=N)N)NC(=O)[C@H](CC(C)C)NC(=O)CNC(=O)[C@H](CCC(N)=O)NC(=O)[C@H](Cc2ccccc2)NC(=O)[C@H](CC(N)=O)NC(=O)[C@H](CC(N)=O)NC(=O)[C@H](CCSC)NC(=O)[C@H](CO)NC(=O)[C@H](CCC(N)=O)NC(=O)[C@H](CCCNC(=N)N)NC(=O)[C@@H](N)Cc2ccc(O)cc2)C(=O)N[C@@H](CCCNC(=N)N)C(=O)N[C@@H](Cc2ccccc2)C(=O)NCC(=O)N[C@@H]([C@@H](C)O)C(=O)N1)[C@@H](C)O)C(C)C)C(=O)N[C@@H](Cc1ccc(O)cc1)C(=O)N[C@@H](CCC(N)=O)C(=O)N[C@@H](Cc1ccccc1)C(=O)N[C@H](C(=O)N[C@@H](CC(=O)O)C(=O)N[C@@H](CCCCN)C(=O)N[C@@H](CC(=O)O)C(=O)N[C@@H](CCCCN)C(=O)N[C@@H](CC(=O)O)C(=O)N[C@@H](CC(N)=O)C(=O)N[C@H](C(=O)N[C@@H](C)C(=O)N1CCC[C@H]1C(=O)N[C@@H](CCCNC(=N)N)C(=O)N[C@@H](CO)C(=O)N[C@@H](CCCCN)C(=O)N[C@H](C(=O)N[C@@H](CO)C(=O)N1CCC[C@H]1C(=O)N[C@@H](CCC(N)=O)C(=O)NCC(=O)N[C@@H](Cc1ccc(O)cc1)C(N)=O)[C@@H](C)CC)C(C)C)[C@@H](C)O", "note": "[h.AM(1-52), reference compound]", "values": [
      {"measurement": "half-life", "setting": "in vivo; first-phase half-life in blood", "value": 0.61, "unit": "min"},
      {"measurement": "half-life", "setting": "in vivo; [3]", "value": 18.9, "unit": "min"},
      {"measurement": "effect on blood pressure", "setting": "[1]", "value": "lowered the blood pressure"},
      {"measurement": "time after the administration at which the blood pressure before the administration was restored", "setting": "[1]", "value": 30, "unit": "min"},
      {"measurement": "time of maximum pressure drop after the administration", "setting": "[1]", "value": 2, "unit": "min"}
    ]}
  ]
}
